Measured values published in the supplement of paper PMC11628255, “Interference of metal ions on the bioluminescent signal of firefly, Renilla, and NanoLuc luciferases in high-throughput screening assays” (Frontiers in Chemistry, 2024).
± gives the standard deviation of the averaged measurements.

Assays:
Test in all cases: normalised percent inhibition of luminescence (vs positive and negative controls); higher = stronger inhibition
[1] = test system: Renilla luciferase (RLuc)
Protocol: (§1)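 Concentration-response (>=11 concentrations) of metal salts on purified FLuc, NLuc or RLuc luminescence in screening (SC) or 100 mM HEPES (H) buffer; salt pre-incubated with enzyme 10 min at RT, read 10 min after substrate. Normalised percent inhibition vs plate positive (PTC-124, isradipine, BTS) and DMSO negative controls; triplicate wells.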

[2] = test system: firefly luciferase (FLuc)
Protocol: as §1

[3] = test system: NanoLuc luciferase (NLuc)
Protocol: as §1

[Cl][Sn][Cl] [tin(II) chloride]
normalised percent inhibition [%]
Settings | [1] | [2] | [3]
metal salt concentration 0.0001 mM, 100 mM HEPES buffer | -43.6 ± 17 | -37.6 ± 15 | -1.04 ± 6.1
metal salt concentration 0.00025 mM, 100 mM HEPES buffer | -34 ± 13 | -36.8 ± 6.8 | -2.95 ± 2.7
metal salt concentration 0.0005 mM, 100 mM HEPES buffer | -29.8 ± 5.5 | -25.8 ± 14 | -1.03 ± 1.3
metal salt concentration 0.001 mM, 100 mM HEPES buffer | -28.6 ± 18 | -45.1 ± 15 | -2.16 ± 1.9
metal salt concentration 0.002 mM, screening conditions buffer | 2.49 ± 5.6 | -6.84 ± 5.6 | 1.6 ± 4.3
metal salt concentration 0.005 mM, screening conditions buffer | -3.55 ± 14 | -10.8 ± 7.7 | 4.64 ± 7.8
metal salt concentration 0.01 mM, screening conditions buffer | 13.4 ± 4.1 | 6.44 ± 2.8 | 3.42 ± 6.3
metal salt concentration 0.02 mM, screening conditions buffer | -6.49 ± 5.1 | 1.32 ± 6 | -0.105 ± 7.6
metal salt concentration 0.025 mM, 100 mM HEPES buffer | -15.8 ± 19 | -26.1 ± 9.4 | -3.24 ± 3.1
metal salt concentration 0.05 mM, 100 mM HEPES buffer | -15 ± 8.5 | -13.9 ± 8.4 | 6.37 ± 5.1
metal salt concentration 0.05 mM, screening conditions buffer | -5.21 ± 12 | 19.1 ± 12 | -1.81 ± 0.79
metal salt concentration 0.1 mM, 100 mM HEPES buffer | -35 ± 10 | -9.51 ± 17 | -5.15 ± 2.1
metal salt concentration 0.1 mM, screening conditions buffer | -1.32 ± 8.7 | 56.5 ± 6.6 | 1.62 ± 2.5
metal salt concentration 0.2 mM, screening conditions buffer | -3.23 ± 5 | 99.33 ± 0.51 | 6.52 ± 2.1
metal salt concentration 0.5 mM, 100 mM HEPES buffer | -38.9 ± 24 | 11.7 ± 4.4 | -1.5 ± 2.9
metal salt concentration 0.5 mM, screening conditions buffer | -6.09 ± 2.5 | 100.6 ± 0.52 | 8.42 ± 5.9
metal salt concentration 1 mM, 100 mM HEPES buffer | -53 ± 25 | 37.6 ± 7.7 | -2.37 ± 3.8
metal salt concentration 1 mM, screening conditions buffer | -5.29 ± 9 | 100.2 ± 0.65 | 20.2 ± 2.5
metal salt concentration 2.5 mM, 100 mM HEPES buffer | -45.3 ± 22 | 63.9 ± 6.3 | -3.02 ± 4.8
metal salt concentration 2.5 mM, screening conditions buffer | -6.8 ± 10 | 100.4 ± 0.65 | 93.83 ± 0.43
metal salt concentration 5 mM, 100 mM HEPES buffer | 79.9 ± 17 | 100.7 ± 0.19 | 11.3 ± 8.9
metal salt concentration 5 mM, screening conditions buffer | 103 ± 2.7 | 100.5 ± 0.69 | 137.11 ± 0.064

[Cl][Fe]([Cl])[Cl] [iron(III) chloride]
normalised percent inhibition [%]
Settings | [1] | [2] | [3]
metal salt concentration 0.0001 mM, 100 mM HEPES buffer | -21.7 ± 4.9 | -26 ± 15 | -1.25 ± 4.4
metal salt concentration 0.00025 mM, 100 mM HEPES buffer | -24.6 ± 22 | -29.2 ± 20 | -4.27 ± 8.5
metal salt concentration 0.0005 mM, 100 mM HEPES buffer | -24.2 ± 25 | -34.9 ± 20 | -1.65 ± 4.2
metal salt concentration 0.001 mM, 100 mM HEPES buffer | -15.5 ± 20 | -41.7 ± 17 | -0.138 ± 3.3
metal salt concentration 0.002 mM, screening conditions buffer | 0.819 ± 2.5 | 14.7 ± 1.8 | 0.19 ± 3.9
metal salt concentration 0.005 mM, screening conditions buffer | -4.9 ± 5 | 55.7 ± 4.7 | 4.14 ± 6.8
metal salt concentration 0.01 mM, screening conditions buffer | -11.6 ± 8.6 | 85.4 ± 3.2 | 8.93 ± 3
metal salt concentration 0.02 mM, screening conditions buffer | 0.263 ± 14 | 95.8 ± 6.3 | 14.5 ± 4.1
metal salt concentration 0.025 mM, 100 mM HEPES buffer | -1.73 ± 19 | 99.41 ± 0.94 | 5.06 ± 5.1
metal salt concentration 0.05 mM, 100 mM HEPES buffer | 36.7 ± 12 | 99.62 ± 0.49 | 15 ± 1.8
metal salt concentration 0.05 mM, screening conditions buffer | -5.21 ± 2 | 82.4 ± 4.2 | -3.71 ± 1.9
metal salt concentration 0.1 mM, 100 mM HEPES buffer | 61.1 ± 4.2 | 100.6 ± 0.19 | 35.6 ± 2.7
metal salt concentration 0.1 mM, screening conditions buffer | 23.9 ± 8.6 | 71.9 ± 8.1 | 28.5 ± 5.2
metal salt concentration 0.2 mM, screening conditions buffer | 32.6 ± 8.1 | 95.4 ± 4.9 | 31.9 ± 1.6
metal salt concentration 0.5 mM, 100 mM HEPES buffer | 103 ± 1.9 | 100.3 ± 0.49 | 99.75 ± 0.79
metal salt concentration 0.5 mM, screening conditions buffer | 48.5 ± 1.6 | 100.2 ± 0.3 | 52.9 ± 0.99
metal salt concentration 1 mM, 100 mM HEPES buffer | 103 ± 2.3 | 99.6 ± 1.3 | 101.4 ± 0.23
metal salt concentration 1 mM, screening conditions buffer | 75.5 ± 7.8 | 100.6 ± 0.43 | 89.6 ± 7.1
metal salt concentration 2.5 mM, 100 mM HEPES buffer | 105.7 ± 0.74 | 100.2 ± 0.32 | 101.8 ± 0.23
metal salt concentration 2.5 mM, screening conditions buffer | 94.4 ± 4.9 | 100.6 ± 0.38 | 137.4 ± 0.29
metal salt concentration 5 mM, 100 mM HEPES buffer | 106.2 ± 0.43 | 99.84 ± 0.32 | 102.12 ± 0.051
metal salt concentration 5 mM, screening conditions buffer | 105 ± 1.1 | 100.5 ± 0.3 | 137.49 ± 0.063

O=S(=O)([O-])[O-].[Fe+2] [iron(II) sulfate]
normalised percent inhibition [%]
Settings | [1] | [2] | [3]
metal salt concentration 0.0001 mM, 100 mM HEPES buffer | 41.8 ± 57 | -15.4 ± 19 | -2.4 ± 0.95
metal salt concentration 0.00025 mM, 100 mM HEPES buffer | -25.1 ± 17 | -21.3 ± 21 | 0.242 ± 1.3
metal salt concentration 0.0005 mM, 100 mM HEPES buffer | -18.6 ± 45 | -14.6 ± 9.3 | 3.64 ± 1.7
metal salt concentration 0.001 mM, 100 mM HEPES buffer | -4.06 ± 18 | 25.9 ± 67 | 0.251 ± 4.1
metal salt concentration 0.002 mM, screening conditions buffer | 2.02 ± 10 | 1.35 ± 17 | -6.27 ± 4.7
metal salt concentration 0.005 mM, screening conditions buffer | 11 ± 4.1 | 9.94 ± 12 | 5.45 ± 5.8
metal salt concentration 0.01 mM, screening conditions buffer | 18.2 ± 2.5 | 4.1 ± 16 | 3.08 ± 4.9
metal salt concentration 0.02 mM, screening conditions buffer | 17.5 ± 9.7 | 6.54 ± 4.6 | 7.25 ± 4.3
metal salt concentration 0.025 mM, 100 mM HEPES buffer | 28.6 ± 12 | 62.5 ± 8.3 | 3.97 ± 5
metal salt concentration 0.05 mM, 100 mM HEPES buffer | 50.9 ± 12 | 100.1 ± 0.94 | 6.24 ± 1.8
metal salt concentration 0.05 mM, screening conditions buffer | 3.55 ± 9.2 | 7.51 ± 17 | 11.5 ± 2.6
metal salt concentration 0.1 mM, 100 mM HEPES buffer | 85.8 ± 11 | 99.99 ± 0.56 | 19.9 ± 2.1
metal salt concentration 0.1 mM, screening conditions buffer | 58.5 ± 6.4 | -0.76 ± 26 | 37.5 ± 3
metal salt concentration 0.2 mM, screening conditions buffer | 74.4 ± 2.4 | 28.7 ± 16 | 49.5 ± 7.2
metal salt concentration 0.5 mM, 100 mM HEPES buffer | 104.9 ± 0.56 | 100.2 ± 0.56 | 67.9 ± 3.6
metal salt concentration 0.5 mM, screening conditions buffer | 93.3 ± 5.9 | 94.1 ± 5.9 | 81.1 ± 2
metal salt concentration 1 mM, 100 mM HEPES buffer | 105 ± 3.1 | 100.3 ± 0.16 | 87.7 ± 2.2
metal salt concentration 1 mM, screening conditions buffer | 96 ± 1.3 | 99.42 ± 0.97 | 138 ± 2.5
metal salt concentration 2.5 mM, 100 mM HEPES buffer | 104 ± 3 | 100.2 ± 0.16 | 101 ± 0.26
metal salt concentration 2.5 mM, screening conditions buffer | 103.6 ± 0.89 | 100.4 ± 0.49 | 157.3 ± 1.2
metal salt concentration 5 mM, 100 mM HEPES buffer | 107 ± 1.1 | 100.2 ± 0.41 | 101.93 ± 0.031
metal salt concentration 5 mM, screening conditions buffer | 105 ± 1.6 | 101.2 ± 0.28 | 158.9 ± 1.2

O=[N+]([O-])[O-].O=[N+]([O-])[O-].[Cu+2] [copper(II) nitrate]
normalised percent inhibition [%]
Settings | [1] | [2] | [3]
metal salt concentration 0.0001 mM, 100 mM HEPES buffer | -51.9 ± 23 | 87.3 ± 0.68 | -0.372 ± 3
metal salt concentration 0.00025 mM, 100 mM HEPES buffer | -48.5 ± 24 | 98.97 ± 0.94 | -0.297 ± 4.1
metal salt concentration 0.0005 mM, 100 mM HEPES buffer | -45.4 ± 25 | 100.2 ± 0.86 | 1.75 ± 3.8
metal salt concentration 0.001 mM, 100 mM HEPES buffer | -40 ± 21 | 100.5 ± 0.32 | 0.0805 ± 1.8
metal salt concentration 0.002 mM, screening conditions buffer | -3.55 ± 2.2 | – | 14.1 ± 1.5
metal salt concentration 0.005 mM, screening conditions buffer | -13.6 ± 6.9 | – | 18.8 ± 0.91
metal salt concentration 0.01 mM, 100 mM HEPES buffer | 62.8 ± 10 | – | 7.71 ± 5.1
metal salt concentration 0.01 mM, screening conditions buffer | -1.01 ± 9.8 | – | 65.1 ± 8.6
metal salt concentration 0.02 mM, screening conditions buffer | -23.7 ± 5.4 | – | 133 ± 1.4
metal salt concentration 0.025 mM, 100 mM HEPES buffer | 105 ± 1.8 | 100.3 ± 0.68 | 59.8 ± 10
metal salt concentration 0.05 mM, 100 mM HEPES buffer | 106 ± 1.2 | 100.6 ± 0.19 | 95.4 ± 2.7
metal salt concentration 0.05 mM, screening conditions buffer | -13 ± 2.6 | – | 135.6 ± 0.57
metal salt concentration 0.1 mM, 100 mM HEPES buffer | 106.6 ± 0.68 | 100.5 ± 0.56 | 99.6 ± 1.4
metal salt concentration 0.1 mM, screening conditions buffer | -8.47 ± 7.3 | – | 136.5 ± 0.29
metal salt concentration 0.2 mM, screening conditions buffer | 105.7 ± 0.96 | – | 136.6 ± 0.2
metal salt concentration 0.5 mM, 100 mM HEPES buffer | 105 ± 2.1 | 100.5 ± 0.32 | 101.5 ± 0.56
metal salt concentration 0.5 mM, screening conditions buffer | 107 | – | 137.2 ± 0.16
metal salt concentration 1 mM, 100 mM HEPES buffer | – | 100.4 ± 0.75 | 101.9 ± 0.15
metal salt concentration 1 mM, screening conditions buffer | 105.8 ± 0.24 | – | 137.4 ± 0.17
metal salt concentration 2.5 mM, 100 mM HEPES buffer | – | 100.4 ± 0.37 | 101 ± 2.5
metal salt concentration 2.5 mM, screening conditions buffer | 105.7 ± 0.6 | – | 137.3 ± 0.23
metal salt concentration 5 mM, 100 mM HEPES buffer | – | 99.95 ± 0.94 | 102.11 ± 0.092
metal salt concentration 5 mM, screening conditions buffer | 106.3 ± 0.24 | – | 137.49 ± 0.063
